Reference: US20150272939A1, “Identification of Small Molecule Inhibitors of Jumonji AT-Rich Interactive Domain 1A (JARID1A) and 1B (JARID1B) Histone Demethylase” (Yale University, priority 2012, published 2015)
“Also recorded” adds a separate entry of the source. Like-named read-outs stand apart in the source and are kept apart here.

What was measured:
[1] = target: T1, JMJD2E (Homo sapiens, UniProt B2RXH2); settings: King et al., 2010; cited from earlier work
T1 sequence (B2RXH2 1-337 limits assumed): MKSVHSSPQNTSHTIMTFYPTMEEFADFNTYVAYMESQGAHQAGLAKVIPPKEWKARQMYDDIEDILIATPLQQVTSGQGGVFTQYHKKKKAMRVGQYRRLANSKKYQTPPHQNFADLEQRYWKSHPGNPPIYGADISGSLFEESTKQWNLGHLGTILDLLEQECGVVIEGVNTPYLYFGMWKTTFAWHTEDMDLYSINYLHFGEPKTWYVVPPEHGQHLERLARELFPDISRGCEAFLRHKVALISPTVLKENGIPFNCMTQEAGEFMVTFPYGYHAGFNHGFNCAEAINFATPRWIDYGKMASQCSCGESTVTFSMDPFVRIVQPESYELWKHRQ

[2] = system: MCF7 cells; test: WST-1 cell proliferation assay; format: cell-based, human; settings: 10 μM, 72 hrs
Protocol: (§1) The colorimetric assay (WST-1 reagent) from Roche (11644807001) was performed in 96 well white clear bottom plates (Costar, 3610). 1,000 cells were seeded per well (in quadruplicate) overnight, and PBIT was added to the cells to the indicated concentration for 72 hrs. 0.01% DMSO was included as the control. The WST-1 reagent was added (5 μl per well) for 4 hrs, and OD 440 nm absorbance (which reflects the number of viable cells) was measured with the BioTek Synergy Mx Platereader.

[3] = system: UACC-812 cells; test: WST-1 cell proliferation assay; format: cell-based, human; settings: 10 μM, 72 hrs
Protocol: as §1

[4] = system: MCF10A cells; test: WST-1 cell proliferation assay; format: cell-based, human; settings: 10 μM, 72 hrs
Protocol: as §1

[5] = target: T2, JARID1B (Homo sapiens, UniProt Q9UGL1); test: FLAG-JARID1B histone demethylase assay with AlphaScreen detection (HTS and dose response); format: biochemical;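 further: FLAG-tagged JARID1B at 4 nM acting on a biotinylated H3K4me3 peptide, demethylation read by AlphaScreen luminescence, with hits checked against bio-H3K4me2 without enzyme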
T2 construct: The FLAG tagged full length JARID1B enzyme was expressed in Sf21 insect cells using FLAG-JARID1B baculoviruses; FLAG (N); made in house; host or cells: Sf21 insect cells (baculovirus)

[6] = system: MCF7 cells; test: Histone extraction and western blot of H3K4 methylation; format: cell-based, human; settings: 10 μM, 72 hours, histone extracts
Protocol: MCF7 cells treated with PBIT (10 μM) or DMSO (0.1%) for 72 hours were harvested and lysed with PBS containing 0.5% Triton X-100. Nuclei were spun down by centrifugation at 6,500×g for 10 minutes, and the pellets were re-suspended in 0.2 N HCl. The histones were extracted overnight, and cellular debris was removed by centrifugation. The samples were loaded onto 16% SDS-PAGE gels and probed with antibodies against H3K4me3, H3K4me2, H3K4me1 and H3.
To determine whether PBIT affects H3K4 methylation globally in vivo, H3K4 methylation levels were analyzed in histone extracts prepared from MCF7 cells after exposure to PBIT.

[7] = system: SKBR3-S cells (trastuzumab sensitive); test: WST-1 cell proliferation assay; format: cell-based; settings: 30 μM
Protocol: as §1

[8] = target: T3, UTX (Homo sapiens, UniProt O15550); test: His-FLAG-UTX H3K27me3 demethylase assay with AlphaScreen detection; format: biochemical; settings: compound 10 μM, 64 nM bio-H3K27me3 peptide
T3 construct: His (N); FLAG (N); made in house; host or cells: Sf21 insect cells (baculovirus)
Protocol: Histone demethylase assays were performed in 384 well white plates (Corning 3574). Demethylase buffer conditions for FLAG-JARID1B were as follows: 10 μM α-KG, 100 μM ascorbate, 50 μM (NH4)2Fe(SO4)2, 50 mM Hepes (pH 7.5), 0.01% (v/v) Tween 20, and 0.1% (w/v) bovine serum albumin. The demethylase reactions included 64 nM bio-H3K4me3 peptide alone or in the presence of 4 nM FLAG-JARID1B enzyme in a 10 μl reaction at 25° C. for 30 minutes. As a positive control, 64 nM bio-H3K4me2 peptide was assayed in the absence of enzyme. Assay conditions for FLAG-JARID1C is the same as for FLAG-JARID1B except that 20 nM enzyme was used. For FLAG-JARID1A, the demethylase buffer was similar to FLAG-JARID1B, except that 125 μM α-KG and 13 nM FLAG-JARID1A enzyme were used. […]
The AlphaScreen General IgG (Protein A) detection kit was obtained from PerkinElmer. Demethylated H3K4 products were detected using AlphaScreen antibody/bead mix containing 7.5 mM ethylenediaminetetraacetic acid (EDTA) and 0.15 μg/ml anti-H3K4me1 antibody in a final volume of 20 μl. […] The luminescence signal was measured using the Envision (PerkinElmer) or Pherastar (BMG Labtech) Platereaders.

[9] = system: SKBR3-R cells (trastuzumab resistant); test: WST-1 cell proliferation assay; format: cell-based; settings: 30 μM

T2 sequence (Q9UGL1 whole entry): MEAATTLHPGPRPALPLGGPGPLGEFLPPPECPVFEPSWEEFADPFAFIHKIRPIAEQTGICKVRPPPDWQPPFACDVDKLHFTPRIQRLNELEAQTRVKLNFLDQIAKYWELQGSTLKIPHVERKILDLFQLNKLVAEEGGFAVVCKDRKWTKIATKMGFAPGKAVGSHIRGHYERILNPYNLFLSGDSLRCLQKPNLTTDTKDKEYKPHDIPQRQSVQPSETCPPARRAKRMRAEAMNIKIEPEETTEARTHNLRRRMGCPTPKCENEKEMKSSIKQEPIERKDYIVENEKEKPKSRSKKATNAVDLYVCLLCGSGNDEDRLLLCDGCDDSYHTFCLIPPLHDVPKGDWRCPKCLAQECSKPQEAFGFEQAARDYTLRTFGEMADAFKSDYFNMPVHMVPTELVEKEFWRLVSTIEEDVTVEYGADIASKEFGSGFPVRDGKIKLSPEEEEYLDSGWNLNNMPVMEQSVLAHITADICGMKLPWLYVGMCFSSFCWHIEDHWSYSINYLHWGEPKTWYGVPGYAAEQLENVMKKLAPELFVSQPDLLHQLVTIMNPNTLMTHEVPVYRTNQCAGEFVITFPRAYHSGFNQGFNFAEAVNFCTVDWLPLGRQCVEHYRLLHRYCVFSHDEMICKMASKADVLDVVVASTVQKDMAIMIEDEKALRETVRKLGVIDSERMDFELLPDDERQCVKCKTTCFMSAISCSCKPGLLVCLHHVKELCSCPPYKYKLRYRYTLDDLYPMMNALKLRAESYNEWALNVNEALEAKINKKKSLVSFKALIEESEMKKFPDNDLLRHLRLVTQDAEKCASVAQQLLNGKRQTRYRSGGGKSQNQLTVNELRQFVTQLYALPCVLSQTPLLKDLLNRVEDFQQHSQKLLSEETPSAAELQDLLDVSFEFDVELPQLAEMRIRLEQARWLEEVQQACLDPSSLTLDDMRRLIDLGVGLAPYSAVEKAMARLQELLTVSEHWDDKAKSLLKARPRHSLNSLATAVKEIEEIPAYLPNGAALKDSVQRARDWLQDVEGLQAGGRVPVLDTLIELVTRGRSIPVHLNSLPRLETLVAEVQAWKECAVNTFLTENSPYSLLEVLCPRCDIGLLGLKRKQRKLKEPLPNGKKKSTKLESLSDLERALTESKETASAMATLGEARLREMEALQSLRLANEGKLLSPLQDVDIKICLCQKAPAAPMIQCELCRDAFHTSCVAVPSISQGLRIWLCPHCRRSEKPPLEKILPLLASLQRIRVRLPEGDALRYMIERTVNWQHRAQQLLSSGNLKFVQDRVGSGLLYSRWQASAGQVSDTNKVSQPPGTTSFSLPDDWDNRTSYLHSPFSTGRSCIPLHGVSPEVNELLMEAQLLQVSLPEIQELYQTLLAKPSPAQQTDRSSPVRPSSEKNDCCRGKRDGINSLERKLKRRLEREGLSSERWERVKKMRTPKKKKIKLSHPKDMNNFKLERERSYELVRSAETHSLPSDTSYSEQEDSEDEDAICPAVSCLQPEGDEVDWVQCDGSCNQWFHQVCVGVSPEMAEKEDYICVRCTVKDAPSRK
T3 sequence (O15550 whole entry): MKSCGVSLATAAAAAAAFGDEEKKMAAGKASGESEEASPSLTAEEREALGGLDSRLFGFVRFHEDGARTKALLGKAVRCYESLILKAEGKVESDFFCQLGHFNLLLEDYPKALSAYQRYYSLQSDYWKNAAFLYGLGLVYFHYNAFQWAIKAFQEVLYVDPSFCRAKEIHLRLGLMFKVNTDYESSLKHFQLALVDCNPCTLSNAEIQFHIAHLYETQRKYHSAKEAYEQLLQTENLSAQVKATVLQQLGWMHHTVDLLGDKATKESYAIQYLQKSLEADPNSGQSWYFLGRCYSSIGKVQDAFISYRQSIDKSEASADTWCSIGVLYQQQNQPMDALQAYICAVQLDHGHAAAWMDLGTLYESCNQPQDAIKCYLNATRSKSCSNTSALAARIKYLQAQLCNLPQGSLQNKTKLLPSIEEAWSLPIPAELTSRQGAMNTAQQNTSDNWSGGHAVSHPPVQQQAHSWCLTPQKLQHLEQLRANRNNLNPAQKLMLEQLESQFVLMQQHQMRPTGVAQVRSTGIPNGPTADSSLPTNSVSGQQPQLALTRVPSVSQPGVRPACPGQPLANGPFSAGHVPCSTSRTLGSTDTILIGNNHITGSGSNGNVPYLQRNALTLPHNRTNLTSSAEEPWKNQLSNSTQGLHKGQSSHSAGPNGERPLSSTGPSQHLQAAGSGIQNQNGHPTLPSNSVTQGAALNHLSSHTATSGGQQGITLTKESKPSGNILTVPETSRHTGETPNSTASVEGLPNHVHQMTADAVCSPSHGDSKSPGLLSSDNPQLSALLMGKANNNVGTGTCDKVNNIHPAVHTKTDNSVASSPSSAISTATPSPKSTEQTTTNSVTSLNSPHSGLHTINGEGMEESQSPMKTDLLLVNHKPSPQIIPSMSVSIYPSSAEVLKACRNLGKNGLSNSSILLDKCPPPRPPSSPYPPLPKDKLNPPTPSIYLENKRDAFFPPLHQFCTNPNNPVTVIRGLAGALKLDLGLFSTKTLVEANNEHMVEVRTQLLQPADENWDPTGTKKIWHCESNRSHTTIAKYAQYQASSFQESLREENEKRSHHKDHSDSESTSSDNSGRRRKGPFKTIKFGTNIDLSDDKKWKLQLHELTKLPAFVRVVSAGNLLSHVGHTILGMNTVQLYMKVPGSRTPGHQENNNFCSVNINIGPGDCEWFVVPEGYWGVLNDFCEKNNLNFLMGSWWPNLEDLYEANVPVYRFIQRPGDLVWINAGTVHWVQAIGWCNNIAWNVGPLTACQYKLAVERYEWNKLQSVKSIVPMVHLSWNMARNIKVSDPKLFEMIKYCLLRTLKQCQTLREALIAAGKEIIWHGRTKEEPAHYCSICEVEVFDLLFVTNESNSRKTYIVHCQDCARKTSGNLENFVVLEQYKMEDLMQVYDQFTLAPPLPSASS

## Cc1ccc(-n2sc3ccccc3c2=O)cc1 [PBIT, 2-4(4-methylphenyl)-1,2-benzisothiazol-3(2H)-one]
[1]
  IC50: 28 µM
[2]
  cell proliferation (WST-1): did not inhibit growth; also recorded: minimal toxicity
[3]
  cell proliferation (WST-1): killed most
[4]
  cell proliferation (WST-1): minimal toxicity
[5]
  inhibition of JARID1B (maximum): up to 95%
[5]; Fe (II) concentration not stated, read-out: IC50 against JARID1B
  IC50: ~3 µM
[5]; compound 10 μM, 64 nM bio-H3K4me3 peptide
  JARID1B demethylase activity: inhibited
[5]; dose response at 15 μM (low) Fe (II), read-out: IC50 (μM) low Fe (II)
  IC50: 3.17 µM
[5]; dose response at 50 μM (high) Fe (II), read-out: IC50 (μM) high Fe (II)
  IC50: 2.78 µM
[6]
  H3K4me1 levels: did not change significantly
  H3K4me2 levels: did not change significantly
  H3K4me3 levels: increased; also recorded: dramatic increase
[7]
  cell proliferation (WST-1): small inhibitory effects
[8]
  UTX demethylase activity: minimal effect; also recorded: did not inhibit
[9]
  cell proliferation (WST-1): killed most
